Results taken from patent publication US7235536B2, “Cellulose sulfate and other sulfated polysaccharides to prevent and treat papilloma virus infection and other infections” (Rush Presbyterian-St. Luke's Medical Center, priority 2000, dated 2007).
Several values for one entry are separate records, joined by “and”; a condition that tells them apart may be missing. Identical values can stand only once. Like-named read-outs stand apart in the source and are kept apart here.

Tests used:
[1] = system: Bovine Papillomavirus type I; assay: BPV cell focus formation assay (Tables A, B); format: cell-based, bovine papilloma virus
Procedure: Cellulose sulfate was tested for its ability to inhibit BPV infection by cell focus formation assay (see Hermonat et al. (1992) for a description of this assay). Cellulose sulfate from Dextran Products Limited (Lot 80971 in the form of sodium cellulose sulfate, known as Ushercell J.) was mixed with BPV type I (obtained from bovine fibropapillomas) prior to adding the virus to mouse fibroblast line […] cells or mixed with these host cells first prior to adding the virus. In one molecular weight study, the Mr range of cellulose sulfate was about 750 to 20.3 million, with an average Mr of about 1.01 million. […] In another study, the average molecular weight was determined to be about 1.9 million with a peak Mr of about 2.3 million. Unless otherwise specified, the Mr is in daltons. The assay was repeated using different concentrations of cellulose sulfate and the results are shown below.

BPV-1 = BPV-1 focus-forming assay, virus preincubated with compound (Table C); format: cell-based, bovine papilloma virus; conditions: C127 cell line
Procedure: In a similar study using the BPV-1 focus forming assay, the effect of the cellulose sulfate and dextran sulfate on BPV was tested. In this study, cellulose sulfate tested was as described above. Dextran sulfate used was from Dextran Products Limited (Lot DSM-122) prepared using dextan of average Mr of about 500,000 (based on viscosity) and is estimated to have a final average Mr greater than about 500,000 and may be about 1 to 1.1 million.
Microbicidal activity of the compounds was tested using the well-characterized BPV-1 focus-forming assay (Dvoretzky, I., R. Shober, S. K. Chattopadhyay, and D. R. Lowy. 1980. A quantitative in vitro focus assay for bovine papilloma virus. Virology 103:369-375), with modifications for microbicide testing (Hermonat, P. L., (1992) supra; Howett, M. K., et al. (1999) supra. The terms inhibiting or microbicidal activity when used are intended to refer broadly to microbe infection and/or microbe inactivating effect.
Aliquots of BPV-1 containing approximately 100-200 focus-forming units were preincubated with dilutions of compounds for 10 min at 37° C. prior to addition to cultures of mouse C127 cells. Cultures of C127 cells were set up in T25 tissue culture flasks (Corning, N.Y.), containing 3×10^5 cells per flask. Virus-compound mixtures in a total of 50 μl were then added to flasks in 1 ml of media, and an additional 3 ml of media added after 24 hrs culture. Media was changed every 3-4 days for a period of 2 weeks. Foci were enumerated following staining of the monolayer with crystal violet and counting stained foci microscopically. Each concentration of compound was tested in duplicate, and the mean±SD of foci number for the preincubation virus-drug concentration for each compound is shown below as Table C.
Clones were derived from the parental C127 cell line because of the consistent failure of BPV-1 to induce foci following several cell passages of the uncloned parental cell line. One clone, labeled C127-D10, which produced foci upon BPV-1 infection, was chosen for a repeat testing of the compounds. When this clone was tested for microbicidal activity, less compound was required to achieve high reduction in BPV-1-induced foci when compared to the uncloned parental-C127 cells.

Porphyromonas levii = assay: Broth method MIC; format: cell-based
[2] = system: Peptostreptococcus tetradius; assay: Broth method MIC; format: cell-based; conditions: for CS MIC: Broth (study 2)
Clostridium perfringes = assay: Broth method MIC; format: cell-based; conditions: for CS MIC: Broth (study 2)
[3] = system: Bacteroides thetaiotaomicron; assay: Broth method MIC; format: cell-based
Bacteroides fragilis [4] = assay: Broth method MIC; format: cell-based
Gardnerella vaginalis = assay: Agar well growth inhibition on HBT bilayer agar plates; format: cell-based
Procedure: A fresh subculture of G. Vaginalis which is bacteria frequently associated with vaginitis was obtained after overnight growth (16 hours) on a V-agar plate and suspended in sterile phosphate buffered saline (PBS; pH 7.2) to achieve a turbidity of 0.5 (McFarland standard; approximately 10^8 CFU/ml). The suspension was diluted 10 fold and applied to HBT bilayer agar plates by swabbing the entire plate. The plate was allowed to dry for 2-3 min and small wells punched in the agar, 10 mm in diameter. Samples of cellulose sulfate were dissolved at 10 mg/ml in PBS and 0.2 ml placed in the agar wells. As control, 0.2 ml PBS was placed in one of the wells. Growth inhibition was indicated by a light area around the well.
The studies were repeated using various concentrations of cellulose sulfate (ranging from 10 mg/ml to 0.125 mg/ml) and 4 different Gardnerella vaginalis strains. […] The lowest initial concentration of cellulose sulfate at which growth inhibition occurred was 0.5 mg/ml.

[5] = in vivo
Description: Cellulose sulfate offers a further advantage in that irritation by a cytotoxic agent can cause lesions which may facilitate infection and the use of cellulose sulfate is not associated with such risks of infection.

Bacteroides fragilis [6] = conditions: Agar
[7] = ATCC (first listed), Broth (study 1)
[8] = ATCC (first listed), Broth (study 2)
[9] = ATCC (second listed), Broth (study 2)

## sodium cellulose sulfate
[1]; 40 μg/ml, mixed first with the virus
  inhibition of infection: partial inhibition
[1]; 40 μg/ml, pre-incubated with host cells
  inhibition of infection: Complete inhibition
[1]; 200 ug/ml, pre-incubated with the virus before addition to the host cells
  inhibition of infection: almost complete inhibition
[1]; 500 μg/ml, mixed with the virus or with the host cells
  formation of oncogenic foci by the virus: completely inhibited
[1]; Table A, 5.0 μg/ml, pre-incubated with host cells prior to addition to virus
  Viral-induced foci per culture: 72 foci per culture and 60 foci per culture
[1]; Table A, 5.0 μg/ml, pre-incubated with virus prior to addition to host cells
  Viral-induced foci per culture: 121 foci per culture and 97 foci per culture
[1]; Table A, 50 μg/ml, pre-incubated with host cells prior to addition to virus
  Viral-induced foci per culture: 10 foci per culture and 12 foci per culture
[1]; Table A, 50 μg/ml, pre-incubated with virus prior to addition to host cells
  Viral-induced foci per culture: 37 foci per culture and 32 foci per culture
[1]; Table A, 500 μg/ml, pre-incubated with host cells prior to addition to virus
  Viral-induced foci per culture: 0^A foci per culture and 0 foci per culture
[1]; Table A, 500 μg/ml, pre-incubated with virus prior to addition to host cells
  Viral-induced foci per culture: 0^A foci per culture and 0 foci per culture
[1]; Table A, 5000 μg/ml, pre-incubated with host cells prior to addition to virus
  Viral-induced foci per culture: 0^B foci per culture and 0 foci per culture
[1]; Table A, 5000 μg/ml, pre-incubated with virus prior to addition to host cells
  Viral-induced foci per culture: 0^B foci per culture and 0 foci per culture
[1]; Table B, 1.6 μg/ml, pre-incubated with virus prior to addition to host cells
  Viral-induced foci per culture: 196 foci per culture and 168 foci per culture
[1]; Table B, 8.0 μg/ml, pre-incubated with host cells prior to addition to virus
  Viral-induced foci per culture: 5 foci per culture and 3 foci per culture
[1]; Table B, 40 μg/ml, pre-incubated with host cells prior to addition to virus
  Viral-induced foci per culture: 0 foci per culture
[1]; Table B, 40 μg/ml, pre-incubated with virus prior to addition to host cells
  Viral-induced foci per culture: 116 foci per culture and 104 foci per culture
[1]; Table B, 200 μg/ml, pre-incubated with host cells prior to addition to virus
  Viral-induced foci per culture: 0 foci per culture
[1]; Table B, 200 μg/ml, pre-incubated with virus prior to addition to host cells
  Viral-induced foci per culture: 34 foci per culture and 42 foci per culture
BPV-1; 1 mg/ml
  inhibition of papilloma virus infectivity: complete inhibition
BPV-1; 10 to 100 μg/ml
  inhibition of papilloma virus infectivity: moderate to high inhibition
Porphyromonas levii; both strains
  growth inhibition: inhibited
Porphyromonas levii; rma# 11425, Broth (study 1)
  CS MIC: 600 mg/L
Porphyromonas levii; rma# 11425, Broth (study 2)
  CS MIC: 600 mg/L
Porphyromonas levii; rma# 11601, Broth (study 1)
  CS MIC: 300 mg/L
Porphyromonas levii; rma# 11601, Broth (study 2)
  CS MIC: 300 mg/L
[2]; all strains
  growth inhibition: inhibited
[2]; rma# 11253
  CS MIC: 5000 mg/L
[2]; rma# 11287
  CS MIC: 5000 mg/L
Clostridium perfringes; at the concentrations tested
  growth inhibition: inhibited one strain of Clostridium perfringes but not another one
Clostridium perfringes; rma# 11608
  CS MIC: 10000 mg/L
Clostridium perfringes; rma# 11655
  CS MIC: NI (not inhibited by 10 mg/ml (the highest concentration tested))
[3]; [7]
  CS MIC: NI (not inhibited by 10 mg/ml (the highest concentration tested))
[3]; [8]
  CS MIC: NI (not inhibited by 10 mg/ml (the highest concentration tested))
[3]; [9]
  CS MIC: 10000 mg/L
[3]; at the concentrations tested
  growth inhibition: One strain of Bacteroides thetaiotaomicron was inhibited but three others were not
[3]; rma# 11604, Broth (study 2)
  CS MIC: NI (not inhibited by 10 mg/ml (the highest concentration tested))
[3]; rma# 11651, Broth (study 2)
  CS MIC: NI (not inhibited by 10 mg/ml (the highest concentration tested))
Bacteroides fragilis [4]; [7]
  CS MIC: NI (not inhibited by 10 mg/ml (the highest concentration tested))
Bacteroides fragilis [4]; [8]
  CS MIC: 10000 mg/L
Bacteroides fragilis [4]; [9]
  CS MIC: NI (not inhibited by 10 mg/ml (the highest concentration tested))
Bacteroides fragilis [4]; at the concentrations tested
  growth inhibition: one strain of Bacteroides fragilis was inhibited but three others were not
Bacteroides fragilis [4]; rma# 11647, Broth (study 2)
  CS MIC: NI (not inhibited by 10 mg/ml (the highest concentration tested))
Bacteroides fragilis [4]; rma# 11652, Broth (study 2)
  CS MIC: NI (not inhibited by 10 mg/ml (the highest concentration tested))
Gardnerella vaginalis; 10 mg/ml in PBS, 0.2 ml in agar well
  area of growth inhibition around the well, diameter: 6 mm
Gardnerella vaginalis; 4 different Gardnerella vaginalis strains, 10 mg/ml to 0.125 mg/ml
  growth inhibition: Dose dependent inhibition
Gardnerella vaginalis; 4 different Gardnerella vaginalis strains, 10 mg/ml to 0.125 mg/ml tested
  lowest initial concentration at which growth inhibition occurred: 0.5 mg/mL
[5]
  tolerability versus K-Y Jelly: as well as or even better than K-Y Jelly
  tolerability versus nonoxynol-9: better tolerated than nonoxynol-9
Bacteroides fragilis [6]; ATCC (first listed)
  CS MIC: >625 mg/L
Bacteroides fragilis [6]; rma# 11647
  CS MIC: >625 mg/L
Bacteroides fragilis [6]; rma# 11652
  CS MIC: >625 mg/L
